In PMC9907956 (Journal of inorganic biochemistry, 2022):
Values belong to the compound of their own block, whether it stands above or below them.

How the values were obtained:
human CYP11B1 [1] = target: T1, human CYP11B1 (Homo sapiens, UniProt P15538); test: Spectral ligand binding titration; details: for Kd: dissociation constant Kd, 1 μM CYP11B1; for Amax: 0.2 μM CYP11B1, 5 cm cuvettes
T1 sequence (P15538 25-503): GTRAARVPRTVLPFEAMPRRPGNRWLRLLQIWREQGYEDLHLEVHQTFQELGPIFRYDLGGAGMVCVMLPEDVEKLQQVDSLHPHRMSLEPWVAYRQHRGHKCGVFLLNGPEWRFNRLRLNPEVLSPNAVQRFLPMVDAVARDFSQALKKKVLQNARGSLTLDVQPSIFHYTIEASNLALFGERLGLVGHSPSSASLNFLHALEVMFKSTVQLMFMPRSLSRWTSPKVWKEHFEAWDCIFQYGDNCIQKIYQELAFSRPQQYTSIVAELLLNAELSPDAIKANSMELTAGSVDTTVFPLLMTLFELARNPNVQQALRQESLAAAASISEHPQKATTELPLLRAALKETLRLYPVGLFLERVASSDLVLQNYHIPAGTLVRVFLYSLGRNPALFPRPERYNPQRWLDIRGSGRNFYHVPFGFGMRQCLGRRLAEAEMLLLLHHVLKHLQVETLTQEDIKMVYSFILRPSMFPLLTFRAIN

[2] = target: T2, adrenodoxin-CYP11B1 fusion enzyme (Homo sapiens, UniProt P10109+P15538); test: Spectral ligand binding titration of the adrenodoxin-CYP11B1 fusion enzyme
T2 sequence (P10109+P15538 with tags, fused parts or gaps): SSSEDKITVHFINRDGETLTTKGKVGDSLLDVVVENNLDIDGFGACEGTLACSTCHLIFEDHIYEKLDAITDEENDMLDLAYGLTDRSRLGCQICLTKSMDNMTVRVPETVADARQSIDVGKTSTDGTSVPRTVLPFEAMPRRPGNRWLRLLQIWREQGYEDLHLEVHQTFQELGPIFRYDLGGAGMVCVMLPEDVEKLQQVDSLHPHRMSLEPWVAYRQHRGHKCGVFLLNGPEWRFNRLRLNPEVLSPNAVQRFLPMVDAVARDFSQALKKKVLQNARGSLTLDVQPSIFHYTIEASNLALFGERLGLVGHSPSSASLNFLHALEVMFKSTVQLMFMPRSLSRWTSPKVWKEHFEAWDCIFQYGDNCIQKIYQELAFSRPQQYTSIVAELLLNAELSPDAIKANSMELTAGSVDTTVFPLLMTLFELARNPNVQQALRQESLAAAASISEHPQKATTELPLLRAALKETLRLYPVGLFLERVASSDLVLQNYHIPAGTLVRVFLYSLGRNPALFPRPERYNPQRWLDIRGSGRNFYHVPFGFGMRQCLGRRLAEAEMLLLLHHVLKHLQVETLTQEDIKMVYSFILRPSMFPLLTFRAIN

human CYP11B1 [3] = target: T1, human CYP11B1; format: biochemical; details: 1:1 condition to 1:40 excess adrenodoxin
CYP11B2 [4] = test: CYP11B2 substrate binding with varying adrenodoxin; parameters: species or system human; details: over 40-fold range of excess adrenodoxin
CYP11B2 [5] = details: increasing adrenodoxin up to 40-fold; ref [8]; cited from earlier work

- Kd (human CYP11B1 [1]; 10-fold excess adrenodoxin): 12.2 µM
- Kd (human CYP11B1 [1]; 40-fold excess adrenodoxin): 7.3 µM
- Kd (human CYP11B1 [1]; equimolar adrenodoxin (1 μM)): 20.8 µM
- Kd (human CYP11B1 [1]; no adrenodoxin): 17 µM
- fold increase of Amax/Kd (binding efficiency) ([2]; adrenodoxin fused): more than 11 fold
- fold difference of Kd, fusion vs same 1:1 ratio of non-fused proteins ([2]; printed as higher): ~ 5 fold
- fold increase in catalytic efficiency (kcat/Km) (human CYP11B1 [3]): greater than 11 fold
SMILES: C[C@]12CCC(=O)C=C1CC[C@@H]1[C@@H]2CC[C@@]2(C)[C@H]1CC[C@]2(O)C(=O)CO [11-deoxycortisol]

- Amax (human CYP11B1 [1]; 1:1 CYP11B1 to adrenodoxin): 0.015
- Amax (human CYP11B1 [1]; CYP11B1 alone): 0.006
SMILES: N#Cc1ccc([C@H]2CCc3cncn32)c(F)c1 [LCI699, osilodrostat]

SMILES: C[C@]12CC[C@H]3[C@@H](CCC4=CC(=O)CC[C@@]43C)[C@@H]1CC[C@@H]2C(=O)CO [11-deoxycorticosterone]
- fold increase of Amax/Kd for CYP11B2 (CYP11B2 [4]): more than 3 fold
- fold effect on Km for CYP11B2 (CYP11B2 [5]): 1.6 fold
